From patent US7132287B2, “Method for neural stem cell differentiation using 5HT-1A agonists” (Psychiatric Genomics, Inc., priority 2001, dated 2006)
“And” between values parts separate entries of the source, which are not always exact repeats. Identical values can stand only once.

Tests used:
[1] = tested on: cerebellar neural stem cells
Method: Cells were treated with the drugs as shown in the presence or absence of the 5HT 1A antagonist WAY 100635 (10 nM), or vasoactive intestinal peptide
Drug treatments were started on the next day. Optimal concentrations were as follows: bFGF: 10 ng/ml; BDNF (R&D Systems, Minneapolis, Minn.): 20 ng/ml; buspirone (Sigma): 100–1000 nM; or Serotonin (Sigma): 5–10 μM; buspirone or serotonin and the 5HT1A antagonist WAY100635 (Sigma): 10 nM. The WAY 100635 antagonist compound was used simultaneously with buspirone or serotonin in the blocking experiments. Positive and negative control cultures were those treated with BDNF and FGF alone, respectively.
Untreated cells were used as a negative control.

[2] = tested on: cerebellar stem cells; experiment: Neuronal differentiation of cerebellar stem cells (TuJ1 positive cells); format: cell-based, rat; settings: FIG. 2, lane 5, serotonin 5 μM; untreated control less than 20%
Excerpt: Isolation and quantitation of cerebellar stem cells. Neural stem cells were isolated from rat embryos (obtained from Taconic) at the 19th day of gestation (E19). The rats were sacrificed by inhalation of excess carbon dioxide. The abdomen of the rat was cleaned with 70% ethanol and the uterus was removed quickly and aseptically on the bench top. The uterus was placed in ice cold PBS (GIBCO Cat. # 20012-027) in a 200-ml beaker.
The cerebellar tissue was dissected under a microscope according to the following procedure and collected in a 15-ml tube containing HBSS on ice. The dissection should be completed in 1–2 hours (optimally) and the pH of the HBSS should remain neutral. First, the neck of the embryos was severed towards the bottom and the heads were collected in cold PBS. Next, the skin and scalp was removed from neck and head of the embryo. The brain, including the cerebral cortex, midbrain, cerebellum and some of the spinal cord, was removed by dissection under a microscope and transfered into a clean dish with fresh, cold PBS. The cerebellar region was dissected and cleaned of extraneous tissue, including removal of the meninges, and transferred into cold HBSS in a clean 15 ml tube.
The tube containing the cerebellar tissue was centrifuged at 1,000 RPM for 2 min at 15 C., followed by slow, careful aspiration of the HBSS supernatant (care should be taken to avoid aspirating tissue). (It is best to limit the centrifugation steps as much as possible.) About 1 to 3 ml of DMEM/F12/N2 medium (see below) was immediately added to the remaining tissue; the volume of medium depends on the quantity of the dissected tissue. The tissue was gently triturated about 8 to 10 times using a P-1000 Pipetteman until the tissue was dissociated (as evidenced by cloudy solution), then the tube was incubated in the hood for 5 minutes at room temperature to permit settlement of small particles of undissociated tissue. The supernatant was then transferred into a fresh tube, taking care to avoid the smaller particles of tissue that remained at the bottom of the tube.
Plating and expansion of cerebellar stem cells. The triturated cell suspension of E19 rat cerebellum was seeded into pre-coated 10 cm dishes at 2×10^6 cells per dish. This is denoted as the P0 culture (passage 0). The cells were grown in 5 ml of DMEM/F12/N2 supplemented with 25 mg/L insulin and 10 ng/ml bFGF at 37 C, 5% CO2 and 90% humidity.
Cells were fed daily with 10 ng/ml bFGF. The medium was changed one day after the cells were seeded, and thereafter every other day. On about day 4 of the culture, or when cells reached 70% confluence, the culture was passaged (see “Passage of cerebellar stem cells” below) and seeded into 10 cm dishes at an initial density of 2×10^6 cells per dish. This is denoted as the P1 culture (passage 1). The passaged cells at P1 were grown in DMEM/F12/N2 medium supplemented with 25 mg/L insulin and 10 ng/ml bFGF. The medium was changed every other day.
After two days of culture, some cells were passaged into a P2 culture, and some were seeded in 12-well tissue culture plates for experimental use. One ml of DMEM/F12/N2 medium was used per well of a 12-well plate at 2×10^4 cells per well. Experimental treatments were initiated the day after passage.
(§1) Drug treatments. Stem cells obtained as described above were treated with drugs and subjected to differentiation protocols in the second passage. Cells were plated at a density of 1×10^4 cells per well of a 12-well petridish (Falcon).
Drug treatments were started on the next day. […] The WAY 100635 antagonist compound was used simultaneously with buspirone or serotonin in the blocking experiments.

[3] = target: T1, 5HT1A receptor (Homo sapiens, UniProt P08908); settings: cited from earlier work
T1 sequence (P08908 1-422): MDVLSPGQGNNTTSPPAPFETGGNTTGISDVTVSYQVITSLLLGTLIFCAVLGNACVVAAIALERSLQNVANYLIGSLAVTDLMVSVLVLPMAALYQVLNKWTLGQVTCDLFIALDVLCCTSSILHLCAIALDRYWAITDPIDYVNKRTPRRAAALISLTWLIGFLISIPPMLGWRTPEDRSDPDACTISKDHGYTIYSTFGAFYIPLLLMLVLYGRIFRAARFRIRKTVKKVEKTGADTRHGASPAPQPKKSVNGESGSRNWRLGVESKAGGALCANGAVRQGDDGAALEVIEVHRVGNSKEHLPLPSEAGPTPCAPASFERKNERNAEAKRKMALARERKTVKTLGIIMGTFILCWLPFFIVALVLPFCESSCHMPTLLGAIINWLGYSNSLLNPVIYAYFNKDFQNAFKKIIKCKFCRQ

[4] = target: T2, 5-HT1A receptors over dopamine D2 receptors (Homo sapiens, UniProt P08908); settings: compared to buspirone; cited from earlier work
T2 sequence (P08908 1-422): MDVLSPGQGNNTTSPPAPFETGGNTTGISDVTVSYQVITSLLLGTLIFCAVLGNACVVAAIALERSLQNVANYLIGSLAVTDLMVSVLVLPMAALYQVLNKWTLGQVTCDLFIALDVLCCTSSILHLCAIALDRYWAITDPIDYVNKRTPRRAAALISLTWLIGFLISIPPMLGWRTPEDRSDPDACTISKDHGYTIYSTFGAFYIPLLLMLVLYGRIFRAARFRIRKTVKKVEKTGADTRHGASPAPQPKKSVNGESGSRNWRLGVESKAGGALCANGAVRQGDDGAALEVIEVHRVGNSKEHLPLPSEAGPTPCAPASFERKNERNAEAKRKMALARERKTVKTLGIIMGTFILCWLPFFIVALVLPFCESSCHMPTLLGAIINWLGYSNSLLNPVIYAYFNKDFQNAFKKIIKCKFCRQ

[5] = target: T1, 5HT1A receptor; settings: cited from earlier work; remark: listed apart in the source
[6] = tested on: cortical neural stem cells; experiment: Neuronal differentiation of cortical neural stem cells (β tubulin III / TuJ-1 immunofluorescence); format: cell-based, rat; settings: 6 days
Excerpt: Isolation of cortical and striatal stem cells. Timed pregnant Sprague Dawley rats obtained from Taconic at embryonic age E14-E15 were sacrificed as described above and the uterus removed and placed in ice cold PBS in a 10 cm petridish. After rinsing the uterus in PBS, embryos were removed from the uterus, rinsed in PBS and collected in cold HBSS (buffered with HEPES and sodium bicarbonate) in a 10 cm petridish and placed on ice.
The cortex and striatum was dissected under a microscope and collected in a 15 ml tube of HBSS, on ice. Removal of meninges is not possible at this age, and no attempt was made to do so. If the dissected tissue was in large enough chunks and settle to the bottom of the tube, no centrifugation was performed. Alternatively, the tube was centrifuged at 1000 rpm for 5 minutes to pellet the tissue. Following centrifugation, the 15 ml tube containing the tissue was sprayed with 70% ethanol and taken into the sterile hood.
The HBSS was aspirated and replaced with 10 ml of DMEM/F12. The tissue was collected at the bottom of the tube by gravity or centrifugation, medium was aspirated, and 1 ml of DMEM/F12 was to the tissue. Cells were dissociated by trituration as described above, followed by addition of 5 ml of DMEM/F12 and a second round of trituration. […] The tubes were placed standing 5–10 minutes in the hood to allow larger particles and meninges to settle. While the meninges were settling, a cell count was made. 10 μl of the cell suspension is diluted with trypan blue and counted in a hemocytometer. Cells were counted in the four outer chambers with the larger squares, and cell count calculated assuming that the volume enclosed in each of the chambers was […].
Plating, expansion and passaging of cortical and striatal stem cells A generous amount of the triturated cell suspension was left in the original 15 ml tube to avoid fibroblast contamination in cultures. About 4–5 ml of the 6 ml of cells suspension was used for plating. Cells were plated at a concentration of approximately 1×10^6 per 10 cm dish. This culture is designated P0 (passage 0).
Following plating cells were expanded for about 3–4 days. The cultures were never permitted to reach more than 70% confluency. Cultures were then passaged as follows: 5 ml of HBSS was added to each 10 cm dish and the cells incubated at 37° C. for 15–45 minutes, or until sufficient numbers of the stem cells were rounded up. It is not expected that all cells in the culture will round up as there are several cell types in the culture at P0. The pH of the HBSS should be neutral at all times during this incubation. Cells were then removed from the dish by pipetting with a 5 ml pipette, or by scraping with a policeman, collected in a 15 or 50 ml conical tube, and centrifuged at 1000 g for 5 minutes. Cells were gently re-suspended in medium, counted, and plated at a density of about 1×10^6 per 10 cm dish.
as §1
Drug treatments were started on the next day. […] The WAY 100635 antagonist compound was used simultaneously with buspirone or serotonin in the blocking experiments. Positive and negative control cultures were those treated with BDNF and FGF alone, respectively.
Cells were treated with the designated concentrations of drugs or combinations thereof, daily, and were fed every alternate day with fresh medium. Experiments were maintained for about 6–10 days in most cases.

[7] = tested on: adult rat hippocampus; settings: Mahlberg et al., preliminary data; cited from earlier work

Molecule: COc1ccccc1N1CCN(CCN(C(=O)C2CCCCC2)c2ccccn2)CC1 [WAY100635, N-[2-[4-(2-Methoxyphenyl)-1-piperazinyl]ethyl]-N-2-pyridinylcyclohexanecarboxamide]
- effect of antagonist on buspirone-induced neuronal differentiation ([1]; WAY100635 10 nM added simultaneously with buspirone 500 nM, FIG. 2 lane 4): inhibited neuronal differentiation
- effect of antagonist on serotonin-induced neuronal differentiation ([1]; WAY100635 10 nM added simultaneously with serotonin 5 μM, FIG. 2 lane 6): inhibited neuronal differentiation
- effect of antagonist on vasoactive intestinal peptide-induced neuronal differentiation ([1]; WAY100635 10 nM added to VIP-treated cells, FIG. 2 lane 8): did not prevent or inhibit neuronal differentiation

Molecule: NCCc1c[nH]c2ccc(O)cc12 [serotonin, 5-hydroxytryptamine]
- differentiation of neurons [2]: 60%

Molecule: COc1ccc2[nH]cc(CCN(C)C)c2c1 [5-methoxy-N,N-dimethyltryptamine]
- affinity for the 5HT1A receptor [3]: high affinity

Molecule: CC1(C)CC(=O)N(CCCCN2CCN(c3ncccn3)CC2)C(=O)C1 [gepirone]
- selectivity for 5-HT1A receptors over dopamine D2 receptors [4]: much greater selectivity

Molecule: CCCN(CCC)[C@@H]1CCc2ccc3[nH]c(C#N)cc3c2C1 [U-92016A]
- intrinsic activity as 5-HT1A receptor agonist [5]: exceptionally high degree of intrinsic activity

Molecule: bFGF: recombinant human basic fibroblast growth factor (R&D Systems), mitogenic growth factor; negative control
- Total No. of Cells ([6]; 10 ng/ml bFGF): 7330 and 10210
- No. Fluorescent Cells ([6]; 10 ng/ml bFGF, TuJ-1 staining): 33 and 65

Molecule: CNCCC(Oc1ccc(C(F)(F)F)cc1)c1ccccc1 (centres unmarked) [fluoxetine]
- neurogenesis in adult rat hippocampus [7]: increases neurogenesis

B1: BDNF: brain-derived neurotrophic factor (R&D Systems), a known neuronal differentiation factor; positive control (protein, UniProt P23560 19-247, looked up)
Neurotrophic factor BDNF …: APMKEANIRGQGGLAYPGVRTHGTLESVNGPKAGSRGLTSLADTFEHVIEELLDEDQKVRPNEENNKDADLYTSRVMLSSQVPLEPPLLFLLEEYKNYLDAANMSMRVRRHSDPARRGELSVCDSISEWVTAADKKTAVDMSGGTVTVLEKVPVSKGQLKQYFYETKCNPMGYTKEGCRGIDKRHWNSQCRTTQSYVRALTMDSKKRIGWRFIRIDTSCVCTLTIKRGR
- Total No. of Cells ([6]; 20 ng/ml BDNF): 624 and 1006
